Consider two compounds from patent US20250319053A1, “INHIBITORS OF THE PEPTIDYL-PROLYL CIS/TRANS ISOMERASE (PIN1), COMBINATIONS AND USES THEREOF” (DANA-FARBER CANCER INSTITUTE, INC., priority 2021, published 2025).

Data set [1] concerns human PDAC cells (PDAC1 and PDAC2). As to the kind of experiment: Cell proliferation assay (CellTiter-Glo) in PDAC cells. The data set is classed as cell-based. The settings on record: PDAC cells, 72 hrs. As to the method: Cells were seeded at a density of 5000 cells (PDAC1 and PDAC2), or 3000 cells (CAF1 and CAF2) per well in 96-well flat-bottomed plates and incubated for 24 h in culture medium. […] Control cells received dimethyl sulfoxide (DMSO) at a concentration equal to that of drug-treated cells for 72 hours. The cell viability was determined by CellTiter-Glo® 2.0 Assay (Promega) following the manufacturer's instructions.
A general note: Cellular ATP, detected with luciferase, serves as a proxy for viable cell number.

The conditions of data set [2]: in humans; cited from earlier work.
Data set [3] has as its target Pin1 (Homo sapiens, UniProt Q13526). The data set is described as follows: Immunoblotting for Pin1 and substrate oncoproteins in PDAC cells. The data set is classed as cell-based. Also noted: endogenous in cells; host or cells: primary human patient-derived PDAC cells (PDAC1, PDAC2). As to conditions: 72 hrs. The protocol: Cultured cells were lysed in RIPA buffer (50 mM Tris-HCl, pH 7.2, 150 mM NaCl, 1% NP40, 0.1% sodium dodecyl sulfate (SDS), 0.25% Na-deoxycholate) with freshly added phosphatase inhibitors containing 5 mM NaF and 0.2 mM sodium orthovanadate (NA3VO4), and proteinase inhibitors containing 2 μg/mL Aprotinin, 2 μg/mL Leupeptin, 2 μg/mL Pepstatin A, 1 mM DTT (dithiothreitol), 0.5 mM 4-(2-aminoethyl)-benzenesulfonyl fluoride (AEBSF), and 20 mM Chymotrypsin, and then mixed with the SDS sample buffer and loaded onto a gel after boiling for 10 minutes at 95° C. The proteins were resolved by polyacrylamide gel electrophoresis and transferred to PVDF membrane. The transferred membrane was washed three times with Tris-buffered saline containing 0.1% Tween 20 (TBST). After blocking with TBST containing 5% milk or 3% bovine serum albumin (BSA) for 1 h room temperature, the membrane was incubated with the appropriate primary antibody (diluted 1:500-1:10000) in 5% milk or 3% BSA-containing TBST at 4° C. overnight. After incubation with the primary antibody, the membrane was washed three times with TBST for a total of 30 min followed by incubation with horseradish peroxidase conjugated goat anti-rabbit or anti-mouse IgG (diluted 1:5000) for 1 h at room temperature. After three extensive washes with TBST for a total of 30 min, the immunoblots were visualized by enhanced chemi-luminescence. Immunoblotting results were quantified using ImageJ (NIH).
(Immunoblotting shows a protein as a band on a membrane.)

Chain of Pin1 (Q13526 whole entry): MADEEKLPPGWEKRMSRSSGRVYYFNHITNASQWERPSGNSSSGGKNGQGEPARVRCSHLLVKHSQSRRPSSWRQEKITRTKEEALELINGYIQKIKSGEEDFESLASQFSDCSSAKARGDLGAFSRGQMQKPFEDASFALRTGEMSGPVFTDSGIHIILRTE

One may read the half-life as how long it takes for the measured level to halve. In the case of `CC1=C(/C=C/C(C)=C/C=C/C(C)=C/C(=O)O)C(C)(C)CCC1` [ATRA, all-trans retinoic acid], in data set [1], the “cell growth (proliferation assay)” value is given as “dose-dependently suppress cell growth”. The half-life in data set [2] is around 45 min. Further, the “Pin1 and its substrate oncoproteins (IB)” value in data set [3] is listed as “ablate Pin1”.

Take “arsenic trioxide [ATO, reference compound]”: the “cell growth (proliferation assay)” value in data set [1] is on record as “dose-dependently suppress cell growth”. For the same compound, in data set [3], the “Pin1 and its substrate oncoproteins (IB)” value is on record as “ablate Pin1”.
